Experimental data published in patent EP2998294A1, “Naphthyl sulfonamide phenyl derivatives as KEAP-1 modulators for the treatment of diabetes, obesity, dyslipidemia and related disorders” (SANOFI, priority 2014, dated 2016).

These compounds were tested against T1, human Keap1 kelch domain (amino acids Ala321-Thr609) (Homo sapiens, UniProt Q14145) (assay: Keap1-Nrf2 peptide binding assay (fluorescence polarisation)). Conditions: binding of Keap1 kelch domain (20 nM) to fluorescently labeled Nrf2 peptide (50 nM).
T1 construct: human Keap1 kelch domain (amino acids Ala321-Thr609)
Method: A fluorescence polarisation assay was used to measure binding of the human Keap1 kelch domain (amino acids Ala321-Thr609) to a fluorescently labeled peptide containing a Keap1 binding site of human Nrf2 (Alexa633-AFFAQLQLDEETGEFL; JPT Technologies, Berlin, Germany). Two microliters of test compound in reaction buffer (phosphate-buffered saline, 2 mM DL-dithiothreitol, 0.015 % (v/v) Brij-35) containing 6 % (v/v) DMSO were mixed with two microliters of the Keap1 kelch domain in reaction buffer in a black 384-well small volume microtiter plate and incubated at ambient temperature for 15 minutes. Thereafter, two microliters were added of the fluorescently labeled Nrf2 peptide in reaction buffer, and the mixture was incubated for a further 30 minutes at ambient temperature. Final concentrations of the Keap1 kelch domain and the fluorescently labeled Nrf2 peptide were 20 nM and 50 nM, respectively.
Fluorescence polarization (FP) was measured at excitation and emission wavelengths of 635 nm and 660 nm, respectively. Positive controls for binding (two microliters of reaction buffer containing 6 % (v/v) DMSO instead of test compound in the same buffer) and negative controls (as positive controls, but without Keap1 kelch domain) were included on each microtiter plate. Data were expressed as percent-inhibition values: percentinhibition = 100⋅(1-(|FPcompound-FPnegative controle|)/(|FPpositive controle-FPnegative controle|)) [formula]
IC50 values were determined by testing different compound concentrations and fitting the resulting percent-inhibition values to the following equation using XLFit4: percentinhibition = A + (B-A)/(1 + (((IC50)/([Compound])))^D) [formula]
Parameter A was set to zero, pre-fit values for parameters B and D were set to 100 and 1, respectively.

T1 sequence (Q14145 321-609): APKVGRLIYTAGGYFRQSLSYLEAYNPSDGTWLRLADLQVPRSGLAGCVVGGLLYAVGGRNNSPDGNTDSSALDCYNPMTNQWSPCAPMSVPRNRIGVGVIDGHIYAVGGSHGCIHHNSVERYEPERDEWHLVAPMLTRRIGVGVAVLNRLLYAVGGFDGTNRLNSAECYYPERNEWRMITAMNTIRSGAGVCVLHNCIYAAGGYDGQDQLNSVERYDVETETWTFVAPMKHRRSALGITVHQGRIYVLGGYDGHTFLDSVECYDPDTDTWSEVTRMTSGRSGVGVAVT

Row | Compound | IC50 [nM]
1 | O=C(O)c1ccc(F)c(-c2ccc(NS(=O)(=O)c3c(Cl)cc(C(F)(F)F)cc3Cl)c3ccccc23)c1 [Example 81, 3-[4-[[2,6-dichloro-4-(trifluoromethyl)phenyl]sulfonylamino]-1-naphthyl]-4-fluoro-benzoic acid] | 700
2 | Cc1ccc(Cl)cc1S(=O)(=O)Nc1ccc(-c2cc(C(=O)O)ccc2F)c2ccccc12 [Example 87, 3-[4-[(5-chloro-2-methylphenyl)sulfonylamino]-1-naphthyl]-4-fluorobenzoic acid] | 1000
3 | O=C(O)c1ccc(F)c(-c2ccc(NS(=O)(=O)c3cc(F)cc(F)c3Cl)c3ccccc23)c1 [Example 92, 3-[4-[(2-chloro-3,5-difluorophenyl)sulfonylamino]-1-naphthyl]-4-fluorobenzoic acid] | 5300

Same assay, conditions: binding of Keap1 kelch domain (20 nM) to fluorescently labeled Nrf2 peptide (50 nM); read-out: IC50

Row | Compound | IC50 [nM]
4 | O=C(O)c1ccc(F)c(-c2ccc(NS(=O)(=O)c3ccc(Cl)c(C(F)(F)F)c3)c3ccccc23)c1 [Example 75, 3-[4-[[4-chloro-3-(trifluoromethyl)phenyl]sulfonylamino]-1-naphthyl]-4-fluoro-benzoic acid] | 4400
5 | O=C(O)c1ccc(F)c(-c2ccc(NS(=O)(=O)c3cc(Cl)ccc3Cl)c3ccccc23)c1 [Example 76, 3-[4-[(2,5-dichlorophenyl)sulfonylamino]-1-naphthyl]-4-fluoro-benzoic acid] | 2400
6 | Cc1c(S(=O)(=O)Nc2ccc(-c3cc(C(=O)O)ccc3F)c3ccccc23)cnn1-c1ccccc1 [Example 77, 4-fluoro-3-[4-[(5-methyl-1-phenyl-pyrazol-4-yl)sulfonylamino]-1-naphthyl]benzoic acid] | 3700
7 | Cn1cc(S(=O)(=O)Nc2ccc(-c3cc(C(=O)O)ccc3F)c3ccccc23)c(C(F)(F)F)n1 [Example 78, 4-fluoro-3-[4-[[1-methyl-3-(trifluoromethyl)pyrazol-4-yl]sulfonylamino]-1-naphthyl]benzoic acid] | 9700
8 | Cc1nn(C)c(C)c1S(=O)(=O)Nc1ccc(-c2cc(C(=O)O)ccc2F)c2ccccc12 [Example 79, 4-fluoro-3-[4-[(1,3,5-trimethylpyrazol-4-yl)sulfonylamino]-1-naphthyl]benzoic acid] | 400
9 | Cc1nc(C)c(S(=O)(=O)Nc2ccc(-c3cc(C(=O)O)ccc3F)c3ccccc23)s1 [Example 80, 3-[4-[(2,4-dimethylthiazol-5-yl)sulfonylamino]-1-naphthyl]-4-fluorobenzoic acid] | 1900
10 | O=C(O)c1ccc(F)c(-c2ccc(NS(=O)(=O)c3cc(F)c(F)cc3Cl)c3ccccc23)c1 [Example 82, 3-[4-[(2-chloro-4,5-difluorophenyl)sulfonylamino]-1-naphthyl]-4-fluorobenzoic acid] | 5100
11 | COc1ccc(S(=O)(=O)Nc2ccc(-c3cc(C(=O)O)ccc3F)c3ccccc23)c(OC)c1 [Example 83, 3-[4-[(2,4-dimethoxyphenyl)sulfonylamino]-1-naphthyl]-4-fluoro-benzoic acid] | 2200
12 | Cc1c(S(=O)(=O)Nc2ccc(-c3cc(C(=O)O)ccc3F)c3ccccc23)cnn1CC(C)C [Example 84, 4-fluoro-3-[4-[(1-isobutyl-5-methyl-pyrazol-4-yl)sulfonylamino]-1-naphthyl]benzoic acid] | 1700
13 | O=C(O)c1ccc(F)c(-c2ccc(NS(=O)(=O)c3cc(Cl)sc3Cl)c3ccccc23)c1 [Example 85, 3-[4-[(2,5-dichloro-3-thienyl)sulfonylamino]-1-naphthyl]-4-fluoro-benzoic acid] | 900
14 | Cc1nn(-c2ccccc2)c(C)c1S(=O)(=O)Nc1ccc(-c2cc(C(=O)O)ccc2F)c2ccccc12 [Example 86, 3-[4-[(3,5-dimethyl-1-phenyl-pyrazol-4-yl)sulfonylamino]-1-naphthyl]-4-fluorobenzoic acid] | 1500
15 | Cc1cc(S(=O)(=O)Nc2ccc(-c3cc(C(=O)O)ccc3F)c3ccccc23)c(Cl)cc1Cl [Example 88, 3-[4-[(2,4-dichloro-5-methylphenyl)sulfonylamino]-1-naphthyl]-4-fluorobenzoic acid] | 1300
16 | COc1cc(C)ccc1S(=O)(=O)Nc1ccc(-c2cc(C(=O)O)ccc2F)c2ccccc12 [Example 89, 4-fluoro-3-[4-[(2-methoxy-4-methylphenyl)sulfonylamino]-1-naphthyl]benzoic acid] | 2500
17 | Cc1c(S(=O)(=O)Nc2ccc(-c3cc(C(=O)O)ccc3F)c3ccccc23)cnn1C1CCCC1 [Example 90, 3-[4-[(1-cyclopentyl-5-methyl-pyrazol-4-yl)sulfonylamino]-1-naphthyl]-4-fluorobenzoic acid] | 1200
18 | COc1ccc(F)c(S(=O)(=O)Nc2ccc(-c3cc(C(=O)O)ccc3F)c3ccccc23)c1 [Example 91, 4-fluoro-3-[4-[(2-fluoro-5-methoxyphenyl)sulfonylamino]-1-naphthyl]benzoic acid] | 2200
19 | Cc1c(S(=O)(=O)Nc2ccc(-c3cc(C(=O)O)ccc3F)c3ncccc23)sc2ccc(Cl)cc12 [Example 93, 3-[5-[(5-chloro-3-methyl-benzothiophen-2-yl)sulfonylamino]-8-quinolyl]-4-fluoro-benzoic acid] | 6500
20 | Cc1c(S(=O)(=O)Nc2ccc(-c3cc(C(=O)O)ccc3F)c3ncccc23)sc2cccc(F)c12 [Example 94, 4-fluoro-3-[5-[(4-fluoro-3-methyl-benzothiophen-2-yl)sulfonylamino]-8-quinolyl]benzoic acid] | 3000
21 | CCCCCCCCn1nc(C)c(S(=O)(=O)Nc2ccc(-c3cc(C(=O)O)ccc3F)c3ncccc23)c1C [Example 95, 3-[5-[(3,5-dimethyl-1-octyl-pyrazol-4-yl)sulfonylamino]-8-quinolyl]-4-fluorobenzoic acid] | 2200
22 | Cc1c(S(=O)(=O)Nc2ccc(-c3cc(C(=O)O)ccc3F)c3ncccc23)c2ccccc2n1C [Example 96, 3-[5-[(1,2-dimethylindol-3-yl)sulfonylamino]-8-quinolyl]-4-fluoro-benzoic acid] | 900
23 | Cn1ccc2c(S(=O)(=O)Nc3ccc(-c4cc(C(=O)O)ccc4F)c4ncccc34)cccc21 [Example 97, 4-fluoro-3-[5-[(1-methylindol-4-yl)sulfonylamino]-8-quinolyl]benzoic acid] | 5500
